Measured values: patent US11414436B2, “Non-coordinating anion type activators containing cation having large alkyl groups” (ExxonMobil Chemical Patents Inc., priority 2018, dated 2022)
Several values for one entry are separate records, joined by “and”; a condition that tells them apart may be missing. Equal entries are not always repeated.

Experiments:
[1] = Solubility studies of the activators (saturated solution in isohexane or methylcyclohexane); format: physicochemical; details: methylcyclohexane
[2] = Ethylene-octene copolymerization in parallel pressure reactor, non-metallocene catalyst CAT-3; details: catalyst CAT-3 20 nmol; activator 1.1 equiv; 100° C.; 135 psi; 1-octene 100 uL; TNOAL 0.5 umol
Protocol: (§1) Solutions of the metal complexes and activators were prepared in a drybox using toluene or methylcyclohexane. Concentrations were typically 0.2 mmol/L. Tri-n-octylaluminum (TNOAL, neat, AkzoNobel) was typically used as a scavenger. Concentration of the TNOAL solution in toluene ranged from 0.5 to 2.0 mmol/L.
(§2) Polymerizations were carried out in a parallel pressure reactor, as generally described in U.S. Pat. Nos. 6,306,658; 6,455,316; 6,489,168; WO 00/09255; and Murphy, V. et al. (2003) “A Fully Integrated High-Throughput Screening Methodology for the Discovery of New Polyolefin Catalysts: Discovery of a New Class of High Temperature Single-Site Group (IV) Copolymerization Catalysts,” J. Am. Chem. Soc., v. 125, pp. 4306-4317, each of which is fully incorporated herein by reference. […] Although the specific quantities, temperatures, solvents, reactants, reactant ratios, pressures, and other variables are frequently changed from one polymerization run to the next, the following describes a typical polymerization performed in a parallel pressure reactor.
(§3) Ethylene-Octene Copolymerization (EO).
(§4) A pre-weighed glass vial insert and disposable stirring paddle were fitted to each reaction vessel of the reactor, which contains 48 individual reaction vessels. The reactor was then closed and purged with ethylene. Each vessel was charged with enough solvent (typically isohexane) to bring the total reaction volume, including the subsequent additions, to the desired volume, typically 5 mL. 1-octene, if required, was injected into the reaction vessel and the reactor was heated to the set temperature and pressurized to the predetermined pressure of ethylene, while stirring at 800 rpm. The aluminum compound (such as tri-n-octylaluminum) in toluene was then injected as scavenger followed by addition of the activator solution (typically 1.0-1.2 molar equivalents).
(§5) The catalyst (and activator solutions for Run A) were all prepared in toluene. The catalyst solution (typically 0.020-0.080 μmol of metal complex) was injected into the reaction vessel and the polymerization was allowed to proceed until a pre-determined amount of ethylene (quench value typically 20 psi) had been used up by the reaction. Alternatively, the reaction may be allowed to proceed for a set amount of time (maximum reaction time typically 30 minutes). Ethylene was added continuously (through the use of computer controlled solenoid valves) to the autoclaves during polymerization to maintain reactor gauge pressure (P setpt, +/−2 psig) and the reactor temperature (T) was monitored and typically maintained within +/−1° C. The reaction was quenched by pressurizing the vessel with compressed air. After the reactor was vented and cooled, the glass vial insert containing the polymer product and solvent was removed from the pressure cell and the inert atmosphere glove box, and the volatile components were removed using a Genevac HT-12 centrifuge and Genevac VC3000D vacuum evaporator operating at elevated temperature and reduced pressure. The vial was then weighed to determine the yield of the polymer product. The resultant polymer was analyzed by Rapid GPC (see below) to determine the molecular weight, by FT-IR (see below) to determine percent octene incorporation, and by DSC (see below) to determine melting point (Tm).
(§6) Equivalence is determined based on the mole equivalents relative to the moles of the transition metal in the catalyst complex.
(§7) Activators of the present disclosure can also be used for activating non-metallocene catalysts for polymerization of olefins. Table 4 illustrates copolymerization of ethylene and octene using activators of the present disclosure and non-metallocene catalysts (CAT-1, CAT-2, CAT-3, and CAT-4).

[3] = Ethylene-octene copolymerization in parallel pressure reactor, non-metallocene catalyst CAT-4; details: catalyst CAT-4 20 nmol; activator 1.1 equiv; 100° C.; 135 psi; 1-octene 100 uL; TNOAL 0.5 umol
Protocol: as §1, §2, §3, §4, §5, §6, §7

[4] = Solubility studies of the activators (saturated solution in isohexane or methylcyclohexane); format: physicochemical
Protocol: Solubility Studies of the Activators
Procedure for Solid Activators.
A saturated solution of each of the solid ammonium borate activators was prepared by stirring an excess of the activator with either isohexane or methylcyclohexane solvent for several hours at 25° C. The mixture was then filtered and a known volume of the filtrate was evaporated to dryness in a tared vial. The vial was then weighed to determine the mass of activator that was dissolved in the aliquot. The concentration of the saturated solution is presented in millimoles of activator per liter of solution (mM).
Procedure for Activators that Form Emulsions.
A saturated solution of the activator was prepared by slowly adding the solvent to a pre-weighed amount of the activator. The final volume was determined as the minimum amount of solvent required to convert the emulsion into a homogeneous solution. The concentration of the saturated solution is presented in millimoles of activator per liter of solution (mM). Alternatively, an emulsion of the activator was prepared by adding the solvent to an excess amount of activator. The resulting emulsion was separated from the undissolved solids by decanting the emulsion into a tared vial. Solvent was then added dropwise until the emulsion became homogeneous. The mass of the final solution was measured and then the solvent was evaporated to dryness to obtain the mass of the activator. The concentration of the saturated solution is presented in millimoles of activator per liter of solution (mM).

[5] = Ethylene-octene copolymerization in parallel pressure reactor, non-metallocene catalyst CAT-1; details: catalyst CAT-1 20 nmol; activator 1.1 equiv; 100° C.; 135 psi; 1-octene 100 uL; TNOAL 0.5 umol
Protocol: as §1, §2, §3, §4, §5, §6, §7

[6] = Ethylene-octene copolymerization in parallel pressure reactor, non-metallocene catalyst CAT-2; details: catalyst CAT-2 20 nmol; activator 1.1 equiv; 100° C.; 135 psi; 1-octene 100 uL; TNOAL 0.5 umol
Protocol: as §1, §2, §3, §4, §5, §6, §7

[7] = Ethylene-octene copolymerization (EO) in parallel pressure reactor, MCN-1 (Table 6); details: MCN-1 = 20 nmol, activator = 22 nmol, 1-octene 100 μL, 80° C., 75 PSI
Protocol: as §3, §4, §5
A series of ethylene-octene polymerizations were performed in the parallel pressure reactor according to a similar procedure as described above. In these studies rac-dimethylsilyl-bis(indenyl)hafnium dimethyl (MCN-1) was used along with ammonium borate activators.

[8] = Ethylene homopolymerization (PE) in parallel pressure reactor, MCN-1; details: MCN-1 = 20 nmol, activator = 22 nmol, 80° C., 75 PSI
Protocol: Ethylene homopolymerization (PE).
A series of ethylene polymerizations were performed in the parallel pressure reactor sinilar to the procedure described above. In these studies rac-dimethylsilyl- bis(indenyl)hafnium dimethyl (MCN-1) was used along with ammonium borate activators .

[9] = RUN B: ethylene-octene polymerization in parallel pressure reactor, activator diluent toluene or methylcyclohexane; details: ethylene-octene copolymerization
Protocol: RUN B: Polymerization in Parallel Pressure Reactor.
A series of ethylene-octene polymerizations were performed in the parallel pressure reactor according to the procedure described above. […] In a typical experiment an automated syringe was used to introduce into the reactor the following reagents, if utilized, in the following order: isohexane (0.35 mL), an isohexane solution of TNOAL scavenger (0.005 M, 60 μL), additional isohexane (0.35 mL), a toluene solution of the respective polymerization catalyst (150 μL, 0.4 mM, 20 nm [cat]/100 μL [toluene]), additional isohexane (0.35 mL), a toluene or methylcyclohexane solution of the respective activator (150 μL, 0.4 mM, (20 nm [act]/100 μL[ diluent])), then additional isohexane so that the total solvent volume for each run was 5 mL. Catalyst and activator were used in a 1:1 ratio. Each reaction was performed at a specified temperature range between 50 and 120° C., typically 95° C., while applying about 100 psig of ethylene (monomer) gas. Each reaction was allowed to run for about 1 hour (˜3600 seconds) or until approximately 20 psig of ethylene gas uptake was observed, at which point the reactions were quenched with air (˜300 psig). When sufficient polymer yield was attained (e.g., at least ˜10 mg), the polyethylene product was analyzed by Rapid GPC, described below.
In a typical experiment, the anilinium borate activators were combined with toluene or methylcyclohexane as diluent and introduced to the parallel, pressure reactor via syringe. By this mechanism of activator introduction, only well dissolved activators could be delivered to the reactor providing a means to discriminate between the polymerization performance of long chain soluble anilinium borates vs. conventional anilinium borates. Following addition of activator, the catalyst Cat 1 was introduced, via syringe as well-dissolved toluene solution and the polymerization was conducted per the methodology described above.

[10] = Propylene homopolymerization in parallel pressure reactor, MCN-1 with ammonium borate activators
From the text: Polymerization in Parallel Pressure Reactor
Solvents, polymerization-grade toluene, and isohexane were supplied by ExxonMobil Chemical Company and purified by passing through a series of columns: two 500 cc Oxyclear cylinders in series from Labclear (Oakland, Calif.), followed by two 500 cc columns in series packed with dried 3 Å mole sieves (8-12 mesh; Aldrich Chemical Company), and two 500 cc columns in series packed with dried 5 Å mole sieves (8-12 mesh; Aldrich Chemical Company). 1-octene (C8) and 1-hexene (C6) (98%, Aldrich Chemical Company) were dried by stirring over NaK overnight followed by filtration through basic alumina (Aldrich Chemical Company, Brockman Basic 1).
as §1, §2
Catalyst systems dissolved in solution were used in the polymerization examples below, unless specified otherwise.
RUN A: Propylene Homopolymerization (PP).
The reactor was prepared as described above and purged with propylene. For the examples in Table 2, the catalyst and activator solutions were prepared in toluene. […] Isohexane was then injected into each vessel at room temperature followed by a predetermined amount of propylene gas. The reactor was heated to the set temperature while stirring at 800 rpm, and the scavenger, activator and catalyst solutions were injected sequentially to each vessel. The polymerization was allowed to proceed as described previously.
A series of propylene polymerizations were performed in parallel pressure reactors (PPRs) developed by Symyx Technologies, Inc. In these polymerizations, the metallocene rac-dimethylsilyl-bis(indenyl)hafnium dimethyl (MCN-1) was used along with several different ammonium borate activators. Polymerizations were performed at 85° C. and 100° C.
Propylene homopolymerization (PP).
A series of propylene polymerizations were performed in the parallel pressure reactor similar to the procedure described above. In these studies rac-dimethylsilyl-bis(indenyl)hafnium dimethyl (MCN-1) was used along with ammonium borate activators.

| Compound | activity [2] | activity [3] | activity [5] | activity [6] | activity [7] | activity [8] | also measured |
| --- | --- | --- | --- | --- | --- | --- | --- |
| CCCCCCCCCCCCCCCCCC[NH+](CCCCCCCCCCCCCCCCCC)c1ccc(C)cc1.Fc1c(F)c(F)c([B-](c2c(F)c(F)c(F)c(F)c2F)(c2c(F)c(F)c(F)c(F)c2F)c2c(F)c(F)c(F)c(F)c2F)c(F)c1F [DOdTH-BF20, 4-methyl-N,N-dioctadecylbenzenaminium-BF20] | 647 kg/mmol/h and 732 kg/mmol/h | 46 kg/mmol/h and 48 kg/mmol/h | 3716 kg/mmol/h and 3736 kg/mmol/h | 1267 kg/mmol/h and 1154 kg/mmol/h |  |  | Solubility limit in MeCy (wt % at 25° C.) [1]: 19 wt %; Solubility limit in i-hexane (mM at 25° C.) ([4]; isohexane): 19 mM; Solubility limit in i-hexane (wt % at 25° C.) ([4]; isohexane): 3.7 wt %; Solubility limit in MeCy (mM at 25° C.) ([4]; methylcyclohexane): 110 mM |
| CCCCCCCCCCCCCCCCCC[NH+](C)c1ccc(CCCCCCCCCCC)cc1.Fc1c(F)c(F)c([B-](c2c(F)c(F)c(F)c(F)c2F)(c2c(F)c(F)c(F)c(F)c2F)c2c(F)c(F)c(F)c(F)c2F)c(F)c1F [UOMAH-BF20] |  |  |  |  | 502.3 kg/mmol/h and 455.9 kg/mmol/h and 521.4 kg/mmol/h and 421.0 kg/mmol/h | 332.5 kg/mmol/h and 317.6 kg/mmol/h and 310.3 kg/mmol/h and 400.0 kg/mmol/h |  |
| CCCCCCCCCCCCCCCCCC[NH+](C)c1ccc(CCCCCCCCCCC)cc1.Fc1c(F)c(F)c2c(F)c([B-](c3c(F)c(F)c4c(F)c(F)c(F)c(F)c4c3F)(c3c(F)c(F)c4c(F)c(F)c(F)c(F)c4c3F)c3c(F)c(F)c4c(F)c(F)c(F)c(F)c4c3F)c(F)c(F)c2c1F [UOMAH-BF28, 4-Undecyl-N-methyl-N-octadecylanilinium-BF28] |  |  |  |  | 366.1 kg/mmol/h and 358.9 kg/mmol/h | 250.9 kg/mmol/h and 186.5 kg/mmol/h |  |
| N,N-Dimethylanilinium tetrakis(pentafluorophenyl)borate [DMAH-BF20, reference compound] | 819 kg/mmol/h and 698 kg/mmol/h | 76 kg/mmol/h and 45 kg/mmol/h | 2977 kg/mmol/h and 2469 kg/mmol/h | 1140 kg/mmol/h and 916 kg/mmol/h | 644.4 kg/mmol/h and 509.4 kg/mmol/h | 288.7 kg/mmol/h and 407.1 kg/mmol/h | quantity of polymer obtained with methylcyclohexane as diluent ([9]; Cat 1, activator in methylcyclohexane): insufficient for analysis; activity ([9]; Cat 1 (MCN-1), activator diluent Toluene, listed as C1): 764.2 kg/mmol/h and 675.0 kg/mmol/h and 659.1 kg/mmol/h and 680.5 kg/mmol/h |
| N-methyl-4-nonadecyl-N-octadecylanilinium tetrakis(pentafluorophenyl)borate [NOMAH-BF20] |  |  |  |  | 430.9 kg/mmol/h and 414.1 kg/mmol/h and 478.7 kg/mmol/h and 409.6 kg/mmol/h | 215.4 kg/mmol/h and 237.5 kg/mmol/h and 399.2 kg/mmol/h and 340.1 kg/mmol/h |  |
| N-methyl-4-nonadecyl-N-octadecylanilinium tetrakis(perfluoronaphthalen-2-yl)borate [NOMAH-BF28] |  |  |  |  | 302.1 kg/mmol/h and 321.1 kg/mmol/h and 300.0 kg/mmol/h and 345.5 kg/mmol/h | 213.1 kg/mmol/h and 202.3 kg/mmol/h and 173.6 kg/mmol/h and 272.1 kg/mmol/h | average catalyst activity, comparison of the four activators (FIG. 6) ([10]; MCN-1, polypropylene at 100° C., Table 7 runs): highest average activities; activity ([10]; propylene 150 psi, 100° C., MCN-1 = 30 nmol, activator = 33 nmol, isohexane, TNOAL 500 nmol): 141 kg/mmol/h and 208 kg/mmol/h and 193 kg/mmol/h and 210 kg/mmol/h and 181 kg/mmol/h and 178 kg/mmol/h and 223 kg/mmol/h and 207 kg/mmol/h |
